How the values were obtained:
[1] = molecular target: two component non-P450 hydroxylase HpaBC (Escherichia coli, UniProt Q57160); conditions: native wild-type HpaBC; proceeds incomplete; cited from earlier work
4HPA3H = molecular target: T1, 4HPA3H (Escherichia coli, UniProt Q57160); assay: Whole-cell hydroxylation, cells expressing wild-type 4HPA3H; type: cell-based, E. coli; conditions: BL21(DE3) cells expressing wild-type 4HPA3H
T1 construct: expressed in transfected cells; host or cells: E. coli BL21(DE3)

[2] = molecular target: T2, 4HPA3H-Y301F/S462A (SEQ ID NO:175) (Escherichia coli, UniProt Q57160, S462A/Y301F); assay: Solid phase-based cascade (Talon column), hydroxylation of naringenin to eriodictyol; type: biochemical, E. coli
T2 construct: made in house; host or cells: E. coli BL21(DE3)
Protocol: Stock solutions of […] and eriodictyol (10 mM each) in methanol were produced (for the structure of the compounds, see FIG. 9). They were diluted using acetonitrile for obtaining the desired concentrations (70, 110, 140, 210 and 280 μM). 10 μl of each sample was injected in to a HPLC machine and calibration curves were produced for both substances (data not shown).
First the catalysis was performed using 9 mU oxidase 4HPA3H in a 10 ml reaction comprising 1 ml 1M Tris/HCl, pH 7.5; 25 μl of a 10 mM NADH solution, 20 μl of a 5 mM FAD solution and 1 ml formate solution using 9 mU 4HPA3H-Y301F/S462A (SEQ ID NO:175) and 0.57 mU PrnF-reductase (SEQ ID NO:176) and 640 mU FDH (SEQ ID NO:177). Subsequently the enzymes were mixes, 100 μl 1M Tris/HCl solution, pH 7.5, was added and ddH2O (deionized, reverse osmosis) was added ad 2 ml. The enzyme solution was at least 5 times passed through a 1 ml Talon column with a flow rate of 0.1 ml/min^−1 to let the proteins bind to the column in a homogenous way. The evaluation of the complete binding of the proteins to the column material was measured via Bradford assay. Then, the column was washed once with 50 mM Tris/HCl, pH 7.5 (=basis buffer), and connected to a peristaltic pump.
The constituents of each reaction mixture were transferred to a suitable sterile flask, which was then connected to a peristaltic pump. During reaction, the reaction mixture was slightly stirred with the help of a magnetic stirrer. Using a flow rate of 1 ml/min, the system was washed with the basis buffer for 2 min and a control sample was taken. Only then, the substrate was added, here 200 μM naringenin (from a 10 mM stock solution in methanol). The substrate was pumped over the Talon column having the enzymes bound thereto with a flow rate of 1 ml/min at maximum. During the time range from 0-1310 min, the sample extraction was performed in samples of 35 μl each. Said samples were mixed with an equal volume of acetonitrile and were immediately injected into a HPLC device (20 μl each). The evaluation was conducted with the help of a calibration curve done at the beginning of the experiment and thereby measuring and calculating the peak areas (see FIG. 10).
The same assay was performed using 35 mU hydroxylase/1 ml column volume and the concentration of the co-enzymes for regeneration of the cofactor was increased equivalently.

[3] = molecular target: T3, 4HPA3H double variant Y301F/S462A (Escherichia coli, UniProt Q57160, S462A/Y301F); assay: In vitro hydroxylation by the 4HPA3H/PrnF/FDH system, variant Y301F/S462A; type: biochemical, E. coli; conditions: substrate 1 mM, purified Y301F/S462A
T3 construct: made in house; host or cells: E. coli BL21(DE3)
Protocol: (§1) Purified 4HPA3H (A) or variants (B) (Y301I depicted in white and Y301F/S462A depicted in black) were used for conversion of substrates (1 mM) under optimized conditions. The numbers correspond to substrates as explained in the legend for FIG. 1 above.
(§2) In order to develop an effective and low-cost enzyme system for in vitro hydroxylation, several parameters of the 4HPA3H reaction with respect to maximum reaction rate were optimized. By means of a spectrophotometric assay (Example 4 above), the inventors screened different buffer systems and optimized the concentration of the components p-coumaric acid (1 cf. FIG. 1), FAD, NADH and methanol, the incubation temperature and oxygen transfer (i.e. by variation of the shaking frequency) (optimum conditions are given in the Experimental Section). […] In contrast to the cofactors, the accompanying cofactor recycling redox enzymes PrnF and FDH were used in excess due to their high specific activity.
In accordance with the whole-cell transformation experiments (FIG. 3), product yields in the conversion by the wild-type 4HPA3H (FIG. 8A) ranged from high (1, 13, 15 cf. FIG. 1) or moderate (5 cf. FIG. 1) to low (9, 11 cf. FIG. 1), whereas ferulic acid 3 was not oxidized. […]

wild-type 4HPA3H = molecular target: T4, wild-type 4HPA3H (Escherichia coli, UniProt Q57160); assay: In vitro hydroxylation by the 4HPA3H/PrnF/FDH system, wild-type 4HPA3H; type: biochemical, E. coli; conditions: substrate 1 mM, purified wild-type 4HPA3H, optimized conditions
T4 construct: made in house; host or cells: E. coli BL21(DE3)
Protocol: as §1, §2
In accordance with the whole-cell transformation experiments (FIG. 3), product yields in the conversion by the wild-type 4HPA3H (FIG. 8A) ranged from high (1, 13, 15 cf. FIG. 1) or moderate (5 cf. FIG. 1) to low (9, 11 cf. FIG. 1), whereas ferulic acid 3 was not oxidized. […] However, in contrast to the experiments with life biocatalysts […] conversion of naringenin (7 cf. FIG. 1) by the wild-type 4HPA3H (25% yield) was observed (which might be explained by increased substrate availability). The hydroxycarbazole (11) was not accepted by the double variant Y301F/S462A, probably because of the high substrate concentration which seems to reflect strong […] inhibition—an effect which has previously been observed for other 4HPA3H enzymes. Noteworthy, HPLC analysis of the reaction products confirmed product specificity.

4HPA3H/PrnF/FDH system = assay: Dependence of in vitro conversion of p-coumaric acid on FAD concentration; type: biochemical
Protocol: The reactions were to performed using the 4HPA3H/PrnF/FDH system.
as §2

[4] = Reduction of FAD with NADH by purified PrnF; type: biochemical; conditions: purified protein
Source text: In order to characterize 4HPA3H and its variants with respect to specific activity, the development of a convenient in vitro assay was necessary. As the enzymes rely on a reductase component which provides the cofactor FADH2 (see FIG. 2), the inventors focused on screening of a suitable reductase enzyme in the first step. The flavin reductase HpaC from E. coli—the endogenous partner of 4HPA3H—was not accessible due to formation of mainly insoluble protein under a variety of expression conditions (data not shown).

For `O=C1C[C@@H](c2ccc(O)cc2)Oc2cc(O)cc(O)c21` [Compound 7, naringenin], which “conversion of naringenin to eriodictyol” value [1] is on record?
The value was under 10%.

What about the “acceptance as substrate” value (4HPA3H) of the same molecule?
The value was “not accepted”.

And the “remaining concentration of naringenin” value ([2]; 9 mU enzyme/1 ml column, 200 μM naringenin, after 1290 min)?
The value was 29.3 µM.

And the “remaining concentration of naringenin” value ([2]; 35 mU hydroxylase/1 ml column volume, after 240 min)?
Its value is 33.3 µM.

Which “acceptance as substrate” value [3] does the source give for `Oc1ccc2c(c1)[nH]c1ccccc12` [Compound 11, 2-hydroxycarbazole] here?
The value was “not accepted”.

And the “product yield” value (wild-type 4HPA3H)?
The value was “low”.

With `Cc1cc2nc3c(=O)[nH]c(=O)nc-3n(C[C@H](O)[C@H](O)[C@H](O)COP(=O)(O)OP(=O)(O)OC[C@H]3O[C@@H](n4cnc5c(N)ncnc54)[C@H](O)[C@@H]3O)c2cc1C` [FAD, flavin adenine dinucleotide] as the molecule, how does the “effect of high concentrations on the redox system” value (4HPA3H/PrnF/FDH system) read?
The value was “inhibitory”.

B1: PrnF: flavin reductase from Pseudomonas protegens Pf-5, cofactor recycling enzyme, SEQ ID NO:176 (protein, listed as Pseudomonas protegens)
chain: MNAATETKVHDLLDAEGRDVRDARELRNVLGQFATGVTVITTRTADGRNVGVTANSFSSLSLSPALVLWSLARTAPSLKAFCSASHFAINVLGAHQHHLSEQFARAAADKFAGVAHSYGKAGAPVLDDVVAVLVCRNVTQYEGGDHLIFIGEIEQYRYSGAEPLVFHAGQYRGLGSNRAESVLKHE
modifications: flavin reductase PrnF
Which “activity in reduction of FAD with NADH” value [4] does the source give for B1 here?
Its value is 16,660±1,600 nmol min^−1 mg^−1.
